Assay [1] in a line: ABTS.+ radical scavenging assay. How it is done:
The assay was performed in a 96-well plate by serial dilution method. A 2 mM ABTS^.+ working solution was prepared in a phosphate buffer (Zheleva-Dimitrova et al [2010]).To this, 200 μL of aqueous potassium per sulfate (70 mM) solution was added and the solution was incubated for 24 h in the dark at room temperature to develop a blue-green color. To 30 μL of ABTS^.+ working solution, 50 μL of different concentrations (3.9–1000 μM) of the test sample solution and 170 μL of phosphate buffer (pH-7.4) were added in a well. The plate was then incubated in the dark at room temperature for 10 min. Then absorbance was measured at 690 nm using Elisa reader. Quercetin and ascorbic acid were used as standards. The percentage scavenging of ABTS^.+ was calculated using the formula, (Control Absorbance–Test Absorbance)*100/(Control Absorbance) and the anti-oxidant activity was expressed in terms of IC50 value.

The nature of assay [2]: DPPH. free radical scavenging assay. How it is done:
DPPH. assay was performed using 96-well plate by serial dilution method. The dilution of methanolic stock solution of the test compounds and standard anti-oxidants was carried out to obtain concentration in the range of 3.9–1000 µM. Quercetin and ascorbic acid were used as standards. To a 100 μL of this solution, 100 μL of 200 µM DPPH^. in methanolic solution was added. The experiment was done in triplicate and the plate was then incubated for 30 min in the dark and later the absorbance was measured at 517 nm using Elisa reader. The percentage DPPH^. Scavenging was calculated using the formula, (Control Absorbance–Test Absorbance)*100/(Control Absorbance). The anti-oxidant activity of the test compounds was expressed in terms of concentration required for 50 percentage inhibition (IC50) (Collins [2005]).
(In general: DPPH is a stable violet radical that fades when it is reduced.)

For assay [3], the system named is MCF-7. The assay is described as follows: MTT cytotoxicity assay on MCF-7. The note with it: read-out: Inhibition of cell proliferation, IC50, MCF-7. Type of assay: cell-based. As to the method:
(§1) The monolayer cell culture was trypsinized and the cell count was adjusted to 5.0 × 10^5 cells/ml using respective media containing 10% FBS. To each well of the 96-well microtiter plate, 100 µL of the diluted cell suspension (50,000cells/well) was added. After 24 h, when a partial monolayer was formed, the supernatant was flicked off, the monolayer was then washed once again with the medium and 100 µL of different test concentrations of test drugs were added on to the partial monolayer in microtiter plates. The plates were then incubated at 37 °C for 24 h in 5% CO2 atmosphere. After incubation, the test solutions in the wells were discarded and 100 µL of MTT (5 mg/10 ml of MTT in PBS) was added to each well. The plates were then incubated for 4 h at 37 °C in 5% CO2 atmosphere. The supernatant was then removed and 100 µL of DMSO was added and the plates were gently shaken to solubilize the formed formazan. The absorbance was measured using a microtiter plate reader at a wavelength of 590 nm. The percentage growth inhibition was thus calculated using the following formula and the concentration of the test drug required to inhibit the cell growth by 50% (IC50) values is generated from the dose–response curves for each one of the cell lines (Meerloo et al. [2011]).
(§2) The test compounds were screened for their in vitro cytotoxicity by MTT assay against two cancer cell lines, namely MCF-7, HCT-116 and normal epithelial kidney cells (Vero). Doxorubicin was used as a reference standard.
Background: Formazan colour is commonly taken as a measure of viable cells.

The subject of assay [4] is HCT 116. The assay is described as follows: MTT cytotoxicity assay on HCT 116. The class given is cell-based, Human. As to conditions: read-out: Inhibition of cell proliferation, IC50, HCT 116. As to the method:
as §1, §2

The subject of assay [5] is normal epithelial kidney cells (Vero). As to the kind of experiment: MTT cytotoxicity assay on Vero. Type of assay: cell-based. As to conditions: 24 h, read-out: Inhibition of cell proliferation, IC50, Vero. As to the method: as §1, §2
For assay [6], the system named is MCF-7 and HCT 116 cell lines. The assay is described as follows: MTT cytotoxicity, IC50 range stated over MCF-7 and HCT 116. The class given is cell-based. The note with it: range over both cell lines; read-out: Cytotoxic activity IC50 range against MCF 7 and HCT 116. As to the method:
as §1, with “[2011]). […]” for “[2011]).”

Assay [7] has as its target CDK2/Cyclin A (Homo sapiens, UniProt P24941). The assay is described as follows: CDK2/cyclin A inhibitory assay, Z'-LYTE FRET kinase assay. The class given is biochemical. The note with it: concentration of 100 micro molar; 1000 ng/ml kinase, 1000 µM ATP. From the text:
Z’-LYTE® technology involves homogeneous assay design based on FRET and is a universal platform for both screening as well as profiling protein kinases. The assay uses a peptide substrate labeled with two different fluorophores, coumarin donor and fluorescein acceptor on each end. These two fluorophores make up a FRET pair, which allows the transfer of energy when both are present on the same molecule. The initial kinase reaction transfers the ϒ-phosphate of ATP to a tyrosine or serine/threonine residue on the substrate. In a secondary reaction, referred to as the development reaction, a site-specific protease recognizes and cleaves only non-phosphorylated peptide, while phosphorylated substrate remains uncleaved. […] Upon excitation of Coumarin at 400 nm, the FRET signal is measured as a ratio between the Coumarin donor emission at 445–460 nm and the fluorescein acceptor emission at 520–535 nm(Lebakken et al. [2007]).
Initial ten-fold and two-fold dilutions of Kinase and ATP concentrations were used to choose the optimal Kinase and ATP concentration based on the % Phosphorylation.
The assay was carried out according to the kit instructions (384 well format). Briefly, 5X kinase buffer [250 mM HEPES (pH 7.5), 50 mM MgCl2, 5 mM EGTA, 0.05% BRIJ-35] was diluted to 1X using distilled water. The phosphor peptide positive control (Z’-LYTE® Tyr 4 phospho-peptide) and the non-phosphorylated negative control (Z’-LYTE® Tyr 4 peptide) were then diluted to 1:500 with 1× kinase buffer to 2 μM. […] Working development solution was then made by diluting 12 μL of the provided stock solution with 388 μL of the provided development buffer. Aliquots (20 μL) of each peptide mixture were then added to the wells of a Corning 3914 solid white microplate in replicates of 8. The development reaction was initiated by the addition of 10 μL of working development-solution to all the wells. Further, the plates were allowed to incubate at room temperature for 60 min. Reactions were then stopped by the addition of 10 μL of stop solution (Jia et al. [2008]).
Reactions were quantitated using a Tecan Robotic Microplate Reader. Reader control, blank subtraction, ratio metric calculations and finally graph plotting were carried out using Gen5™ Data Analysis Software.
The CDK2/Cyclin A assay was carried out as per the manufacturer’s instruction using suitable controls and standard.
The inhibitory assay was carried out using the stock of 10 mM in DMSO. Samples were further serially diluted to obtain concentrations of 100 μM. The concentrations were chosen based on the IC50 values obtained in the MTT assay. A total of 23 analogues were selected for the assay based on their antiproliferative activity. Further, selected compounds were screened and tested against the target CDK2/Cyclin A, and their % phosphorylation and % inhibition were recorded.

In assay [8] the test system is HCT 116 cell lines. As to the kind of experiment: Cell cycle analysis (PI, FACS). Type of assay: cell-based, Human. As to conditions: standard at 25 μM. As to the method: The cell cycle analysis was followed where 1 × 10^6 cells were seeded and cultured for 24 h in a 6-well plate containing 2 ml of the media. Cells were then treated with desired concentrations of the given samples that were prepared in media and further incubated for another 24 h. Cells were then harvested and centrifuged at 2000 rpm for 5 min at room temperature and the supernatant was discarded carefully retaining the cell pellet. Cell pellet was then washed by resuspending in 2 ml of 1XPBS. The washing was repeated another time under the same conditions. Further, the supernatant was discarded retaining the pellet. Cells were then fixed by resuspending in 300 µL of Sheath fluid followed by the addition of 1 ml of chilled 70% ethanol drop by drop gently with continuous shaking and one more mL of the same at once. The cells were then stored at 4 °C overnight. Post fixing, the cells were centrifuged at 2000 rpm for 5 min washed twice with 2 ml of cold 1XPBS and suspended in 450 µL of sheath fluid containing 0.05 mg/ml PI (Propidium iodide), 0.05 mg/ml RNase A and incubated for 15 min in the dark (Kasibhatla et al. [2006]).The percentage of cells in various stages of cell cycle both in the treated as well as un-treated populations was determined using FACS Caliber (BD Biosciences, San Jose, CA).

The subject of assay [9] is HCT-116 cells. The assay is described as follows: Apoptosis detection by propidium iodide / Annexin V-FITC. Type of assay: cell-based, Human. On the set-up: FACS analysis of apoptosis detection, Viable cells / FACS analysis of apoptosis detection, Early apoptotic / FACS analysis of apoptosis detection, Late apoptotic / FACS analysis of apoptosis detection, Necrotic: unit not given here. As to conditions: 20 μM. How it is done:
The day before induction of apoptosis, 1 × 10^6cells per well were plated on a 6-well plate using respective media with 10% FBS and 1% PenStrep, incubated overnight at 37 °C at 5% CO2.The media was replaced with test solutions of different concentrations in the media containing 10% FBS. The treated cells were incubated for 24 h at normal culture conditions. The cells were further harvested and the well contents were completely transferred into the sterile FACS tubes. The cell contents were centrifuged at 2000 rpm for 5 min and the supernatant was discarded. After centrifugation, the cells were washed twice with cold PBS and then resuspended in 1 ml of binding buffer at a concentration of 1× 10^6 cells/ml. […] of the cell suspension (5× 10^5 cells) were then transferred into a fresh FACS tube (Vermes et al. [1995]). Further, cells were gently mixed with […] of propidium iodide and […] of Annexin V before being incubated for 20 minutes at room temperature in the dark. The cells were immediately analyzed by flow cytometer within a duration of an hour.

Where two headings read alike, the source gives them in different places.

On to `COc1cc(OC)c(C2=CCN(C)CC2)c2c1C(=O)/C(=C/c1ccccc1Br)O2` [NMA2], for which the IC50 in assay [1] is 66.5 ± 2.02 µM; in assay [2], 83.2 ± 6.42 µM; in assay [3] (Homo sapiens, MCF7, 24 h) it was 26.8 µM; in assay [4] (Homo sapiens, HCT-116, 24 h) it was 34.9 µM; in assay [5] (Chlorocebus sabaeus, Vero), 154 µM; in [6], 21.2 to 44 µM. Besides, the “% inhibition on CDK2/cyclin A” value in assay [7] turned out to be 35.350%.
For the compound `COc1cc2c(c(OC)c1OC)-c1ccc(OC)c(=O)cc1[C@@H](NC(C)=O)CC2` [Colchicine, reference compound], in assay [8], the “percentage cell population G2/M phase” value came out at 43.78, the “percentage cell population GO/G1 phase” value is 47.39 and the “percentage cell population S phase” value is reported as 8.61.
Regarding `COc1cccc2c1C(=O)c1c(O)c3c(c(O)c1C2=O)C[C@@](O)(C(=O)CO)C[C@@H]3O[C@H]1C[C@H](N)[C@H](O)[C@H](C)O1` [Doxorubicin, reference compound], the IC50 in assay [3] (Homo sapiens, MCF7, 24 h) stood at 0.68 µM. Further, the IC50 in [4] (Homo sapiens, HCT-116, 24 h) is 8.11 µM. Also, the IC50 in [5] (Chlorocebus sabaeus, Vero) turned out to be 165 µM. In assay [9], the “FACS analysis of apoptosis detection, Early apoptotic” value came to 4.44; the “FACS analysis of apoptosis detection, Late apoptotic” value was found to be 26.61; the “FACS analysis of apoptosis detection, Necrotic” value came to 19.86; the “FACS analysis of apoptosis detection, Viable cells” value is given as 49.09. Besides, the apoptotic index in [9] was determined as 26.61%.
With `CCN1CC=C(c2c(OC)cc(OC)c3c2O/C(=C\c2ccc(OC)c(OC)c2)C3=O)CC1` [NEA5], the IC50 in assay [1] was above 1000 µM; in assay [2], 339 ± 9.65 µM; in assay [3] (24 h) it was 135 µM; in assay [4] (24 h) it was 175 µM; in assay [5], 177 µM. In addition, the “% inhibition on CDK2/cyclin A” value in assay [7] came to 26.007%.
Regarding `COc1cc(OC)c(C2=CCN(C(C)C)CC2)c2c1C(=O)/C(=C/c1ccccc1Br)O2` [NISOA2], the IC50 was 234 ± 8.45 µM in assay [1]; 381 ± 28.1 µM in assay [2]; 103 µM in [3] (24 h); 125 µM in [4] (24 h); above 200 µM in [5]. Also, the “% inhibition on CDK2/cyclin A” value in assay [7] is 39.811%.
Take `COc1cc(OC)c(C2=CCN(C(C)C)CC2)c2c1C(=O)/C(=C/c1ccccc1C)O2` [NISOA3]: the IC50 in [1] is 187 ± 8.03 µM; in assay [2], 284 ± 12.3 µM; in assay [3] (24 h) it was 70.4 µM; in assay [4] (24 h) it was 89.5 µM; in [5], above 200 µM. Further, in [7], the “% inhibition on CDK2/cyclin A” value is reported as 43.654%.
Consider `CCCN1CC=C(c2c(OC)cc(OC)c3c2O/C(=C\c2ccc(Cl)cc2)C3=O)CC1` [NPA4], for which the IC50 in assay [1] came to 134 ± 3.71 µM; in assay [2], 162.34 ± 0.06 µM; in assay [3] (24 h) it was 42.1 µM; in [4] (24 h), 44 µM; in [5] it was 102 µM. Moreover, the “% inhibition on CDK2/cyclin A” value in [7] was determined as 14.753%.

The record behind these values is paper PMC9440176, “Novel benzylidene benzofuranone analogues as potential anticancer agents: design, synthesis and in vitro evaluation based on CDK2 inhibition assays” (3 Biotech, 2022).
